Converted amounts (≈) assume the structure as drawn.
Test system: M. tuberculosis H37Rv (ATCC 27294)
Experiment: Microplate Alamar Blue assay (MABA), MIC against replicating M. tuberculosis H37Rv
Type: cell-based
Details: Mycobacterium tuberculosis, 168 h; H37Rv, MABA, 7H12 media, 7 days at 37° C.; MIC = lowest concentration reducing fluorescence by 90% relative to controls; read-out: M. tuberculosis MIC

| SMILES | MIC [µg/mL] |
| --- | --- |
| CCOc1cc(C(O)(CCN(C)C)C(c2cccc(C)c2)c2cc3cc(Br)ccc3nc2OC)cc(OCC)n1 (stereo not drawn) [Example 34, 1-(6-Bromo-2-methoxyquinolin-3-yl)-2-(2,6-diethoxypyridin-4-yl)-4-(dimethylamino)-1-(m-tolyl)butan-2-ol] | 0.04 (≈ 0.0657 µM) |
| COc1cc(C(O)(CCN(C)C)C(c2cc3cc(Br)ccc3nc2OC)c2cccc(OC)c2F)cc(OC(F)F)n1 (stereo not drawn) [Example 49, 1-(6-Bromo-2-methoxyquinolin-3-yl)-2-(2-(difluoromethoxy)-6-methoxypyridin-4-yl)-4-(dimethylamino)-1-(2-fluoro-3-methoxyphenyl)butan-2-ol] | 0.04 (≈ 0.0615 µM) |
| COc1cc(C(O)(CCN(C)C)C(c2cc3cc(C#N)ccc3nc2OC)c2cccc(OC)c2F)cc(OC(F)F)n1 (stereo not drawn) [Example 82, 3-(2-(2-(Difluoromethoxy)-6-methoxypyridin-4-yl)-4-(dimethylamino)-1-(2-fluoro-3-methoxyphenyl)-2-hydroxybutyl)-2-methoxyquinoline-6-carbonitrile] | < 0.02 |
| CCOc1cc(C(O)(CCN(C)C)C(c2cc3cc(Cl)ccc3nc2OC)c2cccc(OC)c2F)cc(OCC)n1 (stereo not drawn) [Example 27, 1-(6-Chloro-2-methoxyquinolin-3-yl)-2-(2,6-diethoxypyridin-4-yl)-4-(dimethylamino)-1-(2-fluoro-3-methoxyphenyl)butan-2-ol] | 0.01 (≈ 0.0167 µM) |
| CCOc1cc(C(O)(CCN(C)C)C(c2cc3cc(Br)ccc3nc2OC)c2ccnc(OC)c2OC)cc(OC(C)C)n1 (stereo not drawn) [Example 23, 1-(6-Bromo-2-methoxyquinolin-3-yl)-1-(2,3-dimethoxypyridin-4-yl)-4-(dimethylamino)-2-(2-ethoxy-6-isopropoxypyridin-4-yl)butan-2-ol] | < 0.02 |
| COc1cc(C(O)(CCN(C)C)C(c2cc3cc(Br)ccc3nc2OC)c2sc(OC)nc2Cl)cc(OC)n1 (stereo not drawn) [Example 71, 1-(6-Bromo-2-methoxyquinolin-3-yl)-1-(4-chloro-2-methoxythiazol-5-yl)-2-(2,6-dimethoxypyridin-4-yl)-4-(dimethylamino)butan-2-ol] | 0.03 (≈ 0.047 µM) |
| CCSc1cc(C(O)(CCN(C)C)C(c2cc3cc(Br)ccc3nc2OC)c2cccc(OC)c2F)cc(SCC)n1 (stereo not drawn) [Example 44, 2-(2,6-Bis(ethylthio)pyridin-4-yl)-1-(6-bromo-2-methoxyquinolin-3-yl)-4-(dimethylamino)-1-(2-fluoro-3-methoxyphenyl)butan-2-ol] | < 0.02 |
| COc1nc2ccc(Br)cc2cc1C(c1ccnc(OC)c1OC)C(O)(CCN(C)C)c1cccc(C)c1 (stereo not drawn) [Example 4, 1-(6-Bromo-2-methoxyquinolin-3-yl)-1-(2,3-dimethoxypyridin-4-yl)-4-(dimethylamino)-2-(m-tolyl)butan-2-ol] | 0.02 (≈ 0.0345 µM) |
| COc1cc(C(c2cc3cc(C#N)ccc3nc2OC)C(O)(CCN(C)C)c2cccc3ccoc23)cc(OC(C)C)n1 (stereo not drawn) [Example 77, 3-(2-(Benzofuran-7-yl)-4-(dimethylamino)-2-hydroxy-1-(2-isopropoxy-6-methoxypyridin-4-yl)butyl)-2-methoxyquinoline-6-carbonitrile] | < 0.02 |
| COc1nc2ccc(Br)cc2cc1C(c1ccccc1)C(O)(CCN(C)C)c1cccc2occc12 (stereo not drawn) [Example 14, 2-(Benzofuran-4-yl)-1-(6-bromo-2-methoxyquinolin-3-yl)-4-(dimethylamino)-1-phenylbutan-2-ol] | 0.06 (≈ 0.11 µM) |
| COc1nc2ccc(C#N)cc2cc1C(c1cccc(F)c1)C(O)(CCN(C)C)c1cccc2ccoc12 (stereo not drawn) [Example 74, 3-(2-(Benzofuran-7-yl)-4-(dimethylamino)-1-(3-fluorophenyl)-2-hydroxybutyl)-2-methoxyquinoline-6-carbonitrile] | 0.04 (≈ 0.0785 µM) |
| COc1cc(C(O)(CCN(C)C)C(c2cc3cc(Br)ccc3nc2OC)c2cccc(OC)c2F)cc(SC)n1 (stereo not drawn) [Example 48, 1-(6-Bromo-2-methoxyquinolin-3-yl)-4-(dimethylamino)-1-(2-fluoro-3-methoxyphenyl)-2-(2-methoxy-6-(methylthio)pyridin-4-yl)butan-2-ol] | < 0.02 |

Source: patent US10981891B2, “Antibacterial compounds and uses thereof” (priority 2016, dated 2021)
